# Assay results taken from patent US12374421B2, “Bioinformatic processes for determination of peptide binding” (priority 2013, dated 2025).
# Assays:
# RL9-pulsed splenocytes = test system: RL9-pulsed splenocytes; design: species or system mice; conditions: mouse, in vivo
# MHC I molecules = conditions: in vivo; cited from earlier work
sequence,measurement,setting,value
RYCINSASL (SEQ ID NO: 28419) [RL9],response pattern after immunization,RL9-pulsed splenocytes,protective response pattern
same,MHC I presentation,MHC I molecules,presented on MHC I molecules
